For assay [1], the system named is MB453 cells. Nature of the assay: Inhibition of cell proliferation, CyQUANT Direct, MB453. To be noted: Homo sapiens; MB453 triple negative breast cancer cells, 72-hour; read-out: MB 453 proliferation calculated IC50. Format: cell-based, human. As to the method: (§1) HCC70 and MB453 cells are cell lines derived from human triple negative breast cancer. COV318 and COV504 cells are cell lines derived from human ovarian cancer. Representative compounds of the invention were tested at different concentrations (from 4 μM to 126.4 pM; 0.5 log serial dilutions) for their ability to inhibit the proliferation of each of these cell lines. Known CDK inhibitors dinaciclib or N-((1S,3R)-3-((5-chloro-4-(1H-indol-3-yl) pyrimidin-2-yl)amino)cyclohexyl)-5-((E)-4-(dimethylamino)but-2-enamido)picolinamide and triptolide were used as positive controls. Cells were seeded at approximately 2,000 cells/well and grown in ATCC-formulated RPMI-1640 Medium (ATCC 30-2001)+10% FBS. The cells were cultured at 37° C. in a humidified chamber in the presence of 5% CO2. Proliferation assays were conducted over a 72-hour time period. CyQUANT® Direct Cell Proliferation Assay (Life Technologies, Chicago, IL USA) was used to assess the anti-proliferative effects of the compounds following manufacturer's directions and utilizing the reagents supplied with the CyQUANT® Direct Cell kit.

Assay [2] deals with CDK7/Cyclin H/MAT1 complex (Homo sapiens, UniProt P50613). In words: CDK7 kinase inhibition assay (Caliper/LabChip EZ Reader).
Assay [3] concerns the target CDK2/Cyclin E1 complex (Homo sapiens, UniProt P24941). In words: CDK2 kinase inhibition assay (Caliper/LabChip EZ Reader).
Protocol: (§2) Compounds of the invention were assayed for inhibition of CDK7, CDK9, CDK12, and CDK2 activity at Biortus Biosciences (Jiangyin, Jiangsu Province, P.R. of China) using kinase assays for each CDK developed with a Caliper/LabChip EZ Reader (Perkin Elmer, Waltham, MA).
(§3) Furthermore, the CDK9 inhibition assay used CDK9/Cyclin T1 complex (8 nM) and “5-FAM-CDK9tide” peptide substrate (2 μM, synthesized fluorophore-labeled peptide with the following sequence: 5-FAM-GSRTPMY-NH2 (SEQ ID NO:2) where 5-FAM is defined above and NH2 signifies a C-terminal amide) with 10 mM MgCl2 in the buffer composition listed above. The CDK12 inhibition assay used CDK12 (aa686-1082)/Cyclin K complex (50 nM) and “5-FAM-CDK9tide” (2 μM) as defined above, with 2 mM MgCl2 in the buffer composition above. Additionally, the CDK2 inhibition assay used CDK2/Cyclin E1 complex (0.5 nM) and “5-FAM-CDK7tide” (2 μM) as defined above, with 2 mM MgCl2 in the buffer composition listed above.
(§4) The incubation period at 27° C. for each CDK inhibition assay was chosen such that the fraction of phosphorylated peptide product produced in each assay, relative to the total peptide concentration, was approximately 20% (±5%) for the uninhibited kinase (35 min. for CDK7, 35 min. for CDK2, 3 hr. for CDK12, 15 min. for CDK9).
The target of assay [4] is CDK12 (aa686-1082)/Cyclin K complex (Homo sapiens, UniProt Q9NYV4). In words: CDK12 kinase inhibition assay (Caliper/LabChip EZ Reader).
Protocol: as §2, §3, §4
Assay [5] deals with COV504 cells. Nature of the assay: Inhibition of cell proliferation, CyQUANT Direct, COV504. Format: cell-based. To be noted: Homo sapiens; COV504 ovarian cancer cells, 72-hour; read-out: COV 504 proliferation calculated IC50. As to the method: as §1
In assay [6] the test system is COV318 cells. Nature of the assay: Inhibition of cell proliferation, CyQUANT Direct, COV318. To be noted: Homo sapiens; COV318 ovarian cancer cells, 72-hour; read-out: COV 318 proliferation calculated IC50. It is filed as cell-based. On the procedure:
as §1

Assay [7] concerns the target CDK9/Cyclin T1 complex (Homo sapiens, UniProt P50750). In words: CDK9 kinase inhibition assay (Caliper/LabChip EZ Reader).
Protocol: as §2, §3, §4
Assay [8] relates to HCC70 cells. In words: Inhibition of cell proliferation, CyQUANT Direct, HCC70. Format: cell-based, human. Conditions: Homo sapiens; HCC70 triple negative breast cancer cells, 72-hour; read-out: HCC 70 proliferation calculated IC50. On the procedure:
as §1

CDK12 (aa686-1082)/Cyclin K complex, sequence (Q9NYV4 686-1082): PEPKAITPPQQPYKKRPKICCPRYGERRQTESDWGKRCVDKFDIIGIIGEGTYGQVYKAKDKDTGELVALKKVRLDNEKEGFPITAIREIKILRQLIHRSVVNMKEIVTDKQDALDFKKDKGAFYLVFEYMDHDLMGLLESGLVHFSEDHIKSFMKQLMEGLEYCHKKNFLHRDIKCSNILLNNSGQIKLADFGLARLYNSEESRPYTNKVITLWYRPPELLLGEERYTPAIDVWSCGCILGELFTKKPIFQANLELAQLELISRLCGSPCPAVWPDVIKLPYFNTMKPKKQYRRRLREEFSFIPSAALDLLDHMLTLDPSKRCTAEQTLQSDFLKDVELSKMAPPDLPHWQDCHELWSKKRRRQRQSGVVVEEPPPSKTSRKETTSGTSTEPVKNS
CDK12 (aa686-1082)/Cyclin K complex, sequence (O75909 whole entry partner, the tested form may be a part): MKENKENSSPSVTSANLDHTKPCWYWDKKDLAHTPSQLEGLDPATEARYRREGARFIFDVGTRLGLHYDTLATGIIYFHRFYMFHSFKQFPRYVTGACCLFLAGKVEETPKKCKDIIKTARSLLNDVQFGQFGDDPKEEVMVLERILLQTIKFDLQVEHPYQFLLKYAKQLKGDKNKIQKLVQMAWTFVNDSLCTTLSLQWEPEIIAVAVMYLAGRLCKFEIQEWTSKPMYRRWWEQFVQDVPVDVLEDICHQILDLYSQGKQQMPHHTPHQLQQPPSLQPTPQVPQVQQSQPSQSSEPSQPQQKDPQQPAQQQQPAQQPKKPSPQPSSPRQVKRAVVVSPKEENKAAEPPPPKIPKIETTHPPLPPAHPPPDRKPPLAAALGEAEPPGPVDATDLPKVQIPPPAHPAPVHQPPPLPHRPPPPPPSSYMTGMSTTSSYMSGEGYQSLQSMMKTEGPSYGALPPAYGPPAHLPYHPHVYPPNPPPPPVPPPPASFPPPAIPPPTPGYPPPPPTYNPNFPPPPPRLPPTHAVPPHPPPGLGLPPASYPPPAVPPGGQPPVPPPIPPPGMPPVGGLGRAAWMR
CDK7/Cyclin H/MAT1 complex, sequence (P50613 whole entry): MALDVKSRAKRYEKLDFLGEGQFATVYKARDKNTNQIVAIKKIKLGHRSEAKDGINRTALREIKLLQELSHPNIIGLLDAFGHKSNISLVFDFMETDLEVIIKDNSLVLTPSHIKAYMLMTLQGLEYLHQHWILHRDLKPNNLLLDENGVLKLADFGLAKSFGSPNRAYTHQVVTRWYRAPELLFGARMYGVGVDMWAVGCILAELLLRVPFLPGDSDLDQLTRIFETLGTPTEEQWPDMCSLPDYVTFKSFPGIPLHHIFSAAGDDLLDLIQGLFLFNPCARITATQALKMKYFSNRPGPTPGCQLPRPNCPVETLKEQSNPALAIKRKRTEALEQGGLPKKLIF
CDK7/Cyclin H/MAT1 complex, sequence (P51946 whole entry partner): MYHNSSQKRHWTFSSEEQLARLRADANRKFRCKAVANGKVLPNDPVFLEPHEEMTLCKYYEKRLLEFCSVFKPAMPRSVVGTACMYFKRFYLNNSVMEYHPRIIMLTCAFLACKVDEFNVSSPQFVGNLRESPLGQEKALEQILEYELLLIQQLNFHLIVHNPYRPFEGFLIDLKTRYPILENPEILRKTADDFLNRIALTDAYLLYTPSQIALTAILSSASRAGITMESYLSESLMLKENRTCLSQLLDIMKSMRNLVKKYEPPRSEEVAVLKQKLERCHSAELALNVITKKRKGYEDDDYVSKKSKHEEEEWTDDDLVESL
CDK7/Cyclin H/MAT1 complex, sequence (P51948 whole entry partner): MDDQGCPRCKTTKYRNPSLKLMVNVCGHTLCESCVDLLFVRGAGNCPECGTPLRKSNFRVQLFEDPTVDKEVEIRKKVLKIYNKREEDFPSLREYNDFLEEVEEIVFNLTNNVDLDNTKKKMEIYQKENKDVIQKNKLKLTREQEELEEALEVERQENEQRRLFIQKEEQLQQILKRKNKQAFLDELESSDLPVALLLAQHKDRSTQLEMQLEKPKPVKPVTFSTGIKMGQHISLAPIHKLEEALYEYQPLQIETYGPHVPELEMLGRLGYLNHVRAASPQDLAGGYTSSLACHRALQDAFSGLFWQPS
CDK9/Cyclin T1 complex, sequence (P50750 whole entry): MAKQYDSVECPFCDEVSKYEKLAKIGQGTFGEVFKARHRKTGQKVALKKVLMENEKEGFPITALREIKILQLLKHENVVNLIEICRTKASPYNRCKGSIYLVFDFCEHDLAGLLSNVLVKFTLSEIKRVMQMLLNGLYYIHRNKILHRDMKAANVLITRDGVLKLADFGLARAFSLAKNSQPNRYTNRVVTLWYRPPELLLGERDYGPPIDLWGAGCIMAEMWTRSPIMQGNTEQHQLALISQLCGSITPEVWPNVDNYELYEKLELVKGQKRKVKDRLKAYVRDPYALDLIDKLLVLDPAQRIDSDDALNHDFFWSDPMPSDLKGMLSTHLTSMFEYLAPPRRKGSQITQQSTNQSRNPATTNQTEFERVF
CDK9/Cyclin T1 complex, sequence (O60563 whole entry partner): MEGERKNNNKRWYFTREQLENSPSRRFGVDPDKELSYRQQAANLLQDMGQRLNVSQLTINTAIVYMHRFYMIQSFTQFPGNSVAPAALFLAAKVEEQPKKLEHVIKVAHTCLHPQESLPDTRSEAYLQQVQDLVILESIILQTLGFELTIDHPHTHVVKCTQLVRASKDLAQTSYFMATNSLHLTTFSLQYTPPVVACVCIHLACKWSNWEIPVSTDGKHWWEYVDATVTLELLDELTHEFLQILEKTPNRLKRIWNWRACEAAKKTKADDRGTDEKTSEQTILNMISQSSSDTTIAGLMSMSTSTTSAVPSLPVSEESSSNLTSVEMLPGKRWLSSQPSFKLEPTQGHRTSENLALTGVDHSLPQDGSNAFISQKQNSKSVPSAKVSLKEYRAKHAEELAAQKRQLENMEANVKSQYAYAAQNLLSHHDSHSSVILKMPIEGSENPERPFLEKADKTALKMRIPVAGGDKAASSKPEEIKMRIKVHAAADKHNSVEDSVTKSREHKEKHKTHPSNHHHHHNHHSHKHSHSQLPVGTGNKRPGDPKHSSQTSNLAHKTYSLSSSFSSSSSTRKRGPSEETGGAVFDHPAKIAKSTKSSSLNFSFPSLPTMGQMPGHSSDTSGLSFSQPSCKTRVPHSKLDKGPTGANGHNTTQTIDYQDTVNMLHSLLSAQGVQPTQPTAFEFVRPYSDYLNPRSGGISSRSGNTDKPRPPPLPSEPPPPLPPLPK

For `C[C@H]1C[C@H](Nc2ncc(C(F)(F)F)c(-c3c[nH]c4cc(C#N)ccc34)n2)CN1` [Compound 104], the IC50 in assay [1] is 100 to 500 nM; in assay [2], 30 to 100 nM; in assay [3], > 500 nM; in assay [4], > 500 nM; in assay [5] it was 100 to 500 nM; in assay [6] it was > 2000 nM. The IC50 is > 500 nM in assay [7] and 500 to 2000 nM in assay [8].

Take `CC(C)N1CC[C@H](Nc2ncc(C(F)(F)F)c(-c3c[nH]c4cc(C#N)ccc34)n2)C1` [Compound 105]: the IC50 was > 2000 nM in assay [1]; > 500 nM in assay [2]; > 500 nM in assay [3]; > 500 nM in assay [4]; > 2000 nM in assay [5]; > 2000 nM in assay [6]. Also, the IC50 in assay [7] was > 500 nM; in assay [8] it was > 2000 nM.

With `C[C@@H]1C[C@H](Nc2ncc(C(F)(F)F)c(-c3c[nH]c4cc(C#N)ccc34)n2)CN1` [Compound 108], the IC50 was 500 to 2000 nM in assay [1]; 30 to 100 nM in assay [2]; > 500 nM in assay [3]; > 500 nM in assay [4]; 500 to 2000 nM in assay [5]; > 2000 nM in assay [6]. Also, the IC50 in assay [7] is > 500 nM; in assay [8], 500 to 2000 nM.

`CN1CC[C@H](Nc2ncc(C(F)(F)F)c(-c3c[nH]c4cc(C#N)ccc34)n2)C1` [Compound 109]: the IC50 in assay [1] is 500 to 2000 nM; in assay [2] it was 100 to 500 nM; in assay [3], > 500 nM; in assay [4], > 500 nM; in assay [5], 500 to 2000 nM; in assay [6], 500 to 2000 nM. The IC50 in assay [7] is > 500 nM; in assay [8], 500 to 2000 nM.

Consider `N#Cc1ccc2c(-c3nc(N[C@H]4CN[C@H](CO)C4)ncc3C(F)(F)F)c[nH]c2c1` [Compound 112], for which the IC50 in assay [1] was 500 to 2000 nM; in assay [2] it was 100 to 500 nM; in assay [3] it was > 500 nM; in assay [4], > 500 nM; in assay [5], > 2000 nM; in assay [6], > 2000 nM. Besides, the figures for the IC50 in assay [7] and in assay [8] were > 500 nM and > 2000 nM, respectively.

Take `N#Cc1ccc2c(-c3nc(N[C@H]4C[C@H]5CC[C@@H]4N5)ncc3C(F)(F)F)c[nH]c2c1` [Compound 114, 3-[2-[[(1S,2S,4R)-7-azabicyclo[2.2.1]heptan-3-yl]-amino]-5-(trifluoromethyl)pyrimidin-4-yl]-1H-indole-6-carbonitrile]: the IC50 in assay [1] was < 100 nM; in assay [2], < 30 nM; in assay [3], > 500 nM; in assay [4] it was > 500 nM; in assay [5], < 100 nM; in assay [6], 100 to 500 nM. Further, the IC50 in assay [7] was > 500 nM; in assay [8] it was 100 to 500 nM.

On to `N#Cc1ccc2c(-c3nc(N[C@@H]4C[C@@H]5CC[C@H]4N5)ncc3C(F)(F)F)c[nH]c2c1` [Compound 115, 3-[2-[[(1R,2R,4S)-7-azabicyclo[2.2.1]heptan-3-yl]amino]-5-(trifluoromethyl)pyrimidin-4-yl]-1H-indole-6-carbonitrile], for which the IC50 is 100 to 500 nM in assay [1]; 30 to 100 nM in assay [2]; > 500 nM in assay [3]; > 500 nM in assay [4]; 100 to 500 nM in assay [5]; 500 to 2000 nM in assay [6]. Besides, the figures for the IC50 in assay [7] and in assay [8] were > 500 nM and 500 to 2000 nM, respectively.

Take `Cc1noc(C)c1-c1ccc2c(-c3nc(N[C@H]4CC[C@@H]4N)ncc3C(F)(F)F)c[nH]c2c1` [Compound 116, (1S,2S)—N2-[4-[6-(3,5-dimethylisoxazol-4-yl)-1H-indol-3-yl]-5-(trifluoromethyl)pyrimidin-2-yl]cyclobutane-1,2-diamine]: the IC50 was < 100 nM in assay [1]; < 30 nM in assay [2]; > 500 nM in assay [3]; > 500 nM in assay [4]; 100 to 500 nM in assay [5]; 100 to 500 nM in assay [6]. For the same compound, the results for the IC50 in assay [7] and in assay [8] were > 500 nM and 100 to 500 nM, respectively.

Take `N[C@H]1CCC[C@@H]1Nc1ncc(C(F)(F)F)c(-c2c[nH]c3cc(-c4nccs4)ccc23)n1` [Compound 117, (1S,2S)—N1-[4-(6-thiazol-2-yl-1H-indol-3-yl)-5-(trifluoromethyl)pyrimidin-2-yl]-cyclopentane-1,2-diamine]: the IC50 in assay [1] is 100 to 500 nM; in assay [2], < 30 nM; in assay [3], > 500 nM; in assay [4], > 500 nM; in assay [5] it was 100 to 500 nM; in assay [6] it was > 2000 nM. Moreover, the IC50 was > 500 nM in assay [7] and 100 to 500 nM in assay [8].

For the compound `Cc1noc(C)c1-c1ccc2c(-c3nc(N[C@H]4CCC[C@@H]4N)ncc3C(F)(F)F)c[nH]c2c1` [Compound 118], the IC50 in assay [1] is < 100 nM; in assay [2] it was < 30 nM; in assay [3], > 500 nM; in assay [4], > 500 nM; in assay [5], < 100 nM; in assay [6], < 100 nM. Moreover, the IC50 was > 500 nM in assay [7] and 100 to 500 nM in assay [8].

In the case of `N#Cc1ccc2c(-c3nc(N[C@H]4Cc5ccccc5[C@@H]4N)ncc3C(F)(F)F)c[nH]c2c1` [Compound 119, 3-[2-[[(1S,2S)-1-aminoindan-2-yl]-amino]-5-(trifluoromethyl)pyrimidin-4-yl]-1H-indole-6-carbonitrile], the IC50 in assay [1] is 100 to 500 nM; in assay [2], < 30 nM; in assay [3], > 500 nM; in assay [4] it was > 500 nM; in assay [5] it was 100 to 500 nM; in assay [6], > 2000 nM. The IC50 in assay [7] is > 500 nM; in assay [8], 100 to 500 nM.

Take `CC(=O)N[C@H]1CCC[C@@H]1Nc1ncc(C(F)(F)F)c(-c2c[nH]c3cc(C#N)ccc23)n1` [Compound 120, N-[(1S,2S)-2-[[4-(6-cyano-1H-indol-3-yl)-5-(trifluoromethyl)pyrimidin-2-yl]-amino]cyclopentyl]-acetamide]: the IC50 in assay [1] was > 2000 nM; in assay [2], > 500 nM; in assay [3], > 500 nM; in assay [4], > 500 nM; in assay [5] it was > 2000 nM; in assay [6], > 2000 nM. Further, the IC50 in assay [7] is > 500 nM; in assay [8] it was > 2000 nM.

Regarding `N#Cc1ccc2c(-c3nc(N[C@H]4CCC[C@@H]4N4CCOCC4)ncc3C(F)(F)F)c[nH]c2c1` [Compound 121], the IC50 in assay [1] is > 2000 nM; in assay [2], 30 to 100 nM; in assay [3] it was > 500 nM; in assay [4], > 500 nM; in assay [5] it was > 2000 nM; in assay [6] it was > 2000 nM. Moreover, the IC50 in assay [7] is > 500 nM; in assay [8], > 2000 nM.

`N#Cc1ccc2c(-c3nc(N[C@H]4CCC[C@@H]4N4CCCC4)ncc3C(F)(F)F)c[nH]c2c1` [Compound 122]: the IC50 in assay [1] was 100 to 500 nM; in assay [2], 30 to 100 nM; in assay [3] it was > 500 nM; in assay [4] it was > 500 nM; in assay [5] it was 100 to 500 nM; in assay [6], 100 to 500 nM. Further, the IC50 is > 500 nM in assay [7] and 100 to 500 nM in assay [8].

Consider `COCCN[C@H]1CCC[C@@H]1Nc1ncc(C(F)(F)F)c(-c2c[nH]c3cc(C#N)ccc23)n1` [Compound 123, 3-[2-[[(1S,2S)-2-(2-methoxyethylamino)cyclopentyl]-amino]-5-(trifluoromethyl)pyrimidin-4-yl]-1H-indole-6-carbonitrile], for which the IC50 in assay [1] is 100 to 500 nM; in assay [2], < 30 nM; in assay [3], > 500 nM; in assay [4], > 500 nM; in assay [5] it was 100 to 500 nM; in assay [6], 100 to 500 nM. Besides, the IC50 in assay [7] is > 500 nM; in assay [8] it was 100 to 500 nM.

For `CN(C)[C@H]1CCC[C@@H]1Nc1ncc(C(F)(F)F)c(-c2c[nH]c3cc(C#N)ccc23)n1` [Compound 124], the IC50 in assay [1] is 500 to 2000 nM; in assay [2], 100 to 500 nM; in assay [3] it was > 500 nM; in assay [4], > 500 nM; in assay [5], 500 to 2000 nM; in assay [6], > 2000 nM. The IC50 in assay [7] is > 500 nM; in assay [8], 500 to 2000 nM.

In the case of `CC(=O)N[C@H]1CC[C@@H]1Nc1ncc(C(F)(F)F)c(-c2c[nH]c3cc(C#N)ccc23)n1` [Compound 125, N-[(1S,2S)-2-[[4-(6-cyano-1H-indol-3-yl)-5-(trifluoromethyl)pyrimidin-2-yl]-amino]-cyclobutyl]-acetamide], the IC50 is 500 to 2000 nM in assay [1]; > 500 nM in assay [2]; > 500 nM in assay [3]; > 500 nM in assay [4]; > 2000 nM in assay [5]; > 2000 nM in assay [6]. The results for the IC50 in assay [7] and in assay [8] were > 500 nM and > 2000 nM, respectively.

Values taken from patent publication US11918592B2, “Inhibitors of cyclin dependent kinase 7 (CDK7)” (Syros Pharmaceuticals, Inc., priority 2018, dated 2024).
